Results reported in patent US10392404B2, “Compounds and compositions as kinase inhibitors” (NOVARTIS AG, priority 2014, dated 2019).
pIC50: −log10 of the molar value.

Key:
[1] = target: T1, C-RAF (Homo sapiens, UniProt P04049, Y340E/Y341E); experiment: In vitro Raf activity determination (Alpha Screen, biotinylated kinase-dead MEK1 substrate), C-Raf; type: biochemical; conditions: c-Raf approximately 4 nM; ATP 1 μM; pre-incubation 60 minutes; reaction 1 hour at room temperature
T1 construct: His tag (implied by nickel chromatography) (cleaved yes); StrepII tag (cleaved yes); made in house; host or cells: Sf9 insect cells (baculovirus), CRAF and h14-3-3 zeta co-expressed; MEK1 substrate from E. coli
Method in brief: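 Full-length C-Raf carrying Y340E/Y341E, co-expressed with 14-3-3ζ in Sf9 cells, at approximately 4 nM, with approximately 10 nM biotinylated kinase-dead MEK1 (K97R) and 1 μM ATP, pH 7.5. Compound preincubated 60 min, reaction 1 hour at room temperature. Phospho-MEK read by AlphaScreen; IC50 by non-linear regression.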

[2] = target: T2, b-Raf (V600E) (Homo sapiens, UniProt P15056, V600E); experiment: In vitro Raf activity determination (Alpha Screen, biotinylated kinase-dead MEK1 substrate), B-Raf; type: biochemical; conditions: b-Raf (V600E) approximately 4 pM; ATP 10 μM; pre-incubation 60 minutes; reaction 3 hours at room temperature
T2 construct: made in house
Method in brief: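 Activated b-Raf(V600E) (~4 pM) pre-incubated 60 min with compound and biotinylated kinase-dead (K97R) MEK1 (~10 nM), then reacted 3 h at room temperature with 10 μM ATP in 50 mM Tris pH 7.5, 15 mM MgCl2, 0.01% BSA, 1 mM DTT. Phospho-MEK detected by AlphaScreen; IC50 by non-linear regression.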

T1 sequence (P04049 whole entry Y340E/Y341E): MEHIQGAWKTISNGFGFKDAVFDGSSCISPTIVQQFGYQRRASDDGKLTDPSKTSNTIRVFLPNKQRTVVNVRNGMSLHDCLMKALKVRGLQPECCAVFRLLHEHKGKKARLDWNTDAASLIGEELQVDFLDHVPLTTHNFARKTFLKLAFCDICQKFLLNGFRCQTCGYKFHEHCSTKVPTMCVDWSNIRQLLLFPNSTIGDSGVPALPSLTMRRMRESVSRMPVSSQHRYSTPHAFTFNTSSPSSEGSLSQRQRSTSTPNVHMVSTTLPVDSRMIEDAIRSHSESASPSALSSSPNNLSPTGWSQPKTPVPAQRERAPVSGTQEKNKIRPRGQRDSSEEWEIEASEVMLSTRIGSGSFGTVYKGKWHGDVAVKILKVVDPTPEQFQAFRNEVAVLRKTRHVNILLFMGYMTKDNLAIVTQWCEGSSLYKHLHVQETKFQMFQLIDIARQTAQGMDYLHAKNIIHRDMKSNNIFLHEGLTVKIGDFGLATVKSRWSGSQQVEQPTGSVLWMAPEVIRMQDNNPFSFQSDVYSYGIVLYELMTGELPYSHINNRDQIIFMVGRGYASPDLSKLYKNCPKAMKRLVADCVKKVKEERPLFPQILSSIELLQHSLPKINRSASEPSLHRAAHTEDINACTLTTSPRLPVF
T1 sequence (P63104 whole entry partner): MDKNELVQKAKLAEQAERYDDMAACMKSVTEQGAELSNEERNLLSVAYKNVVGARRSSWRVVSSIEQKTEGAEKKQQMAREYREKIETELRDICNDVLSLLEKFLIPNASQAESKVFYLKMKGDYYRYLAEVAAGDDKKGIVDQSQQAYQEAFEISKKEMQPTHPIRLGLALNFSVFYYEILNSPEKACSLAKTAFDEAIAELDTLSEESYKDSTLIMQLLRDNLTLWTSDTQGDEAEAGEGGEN
T2 sequence (P15056 whole entry V600E): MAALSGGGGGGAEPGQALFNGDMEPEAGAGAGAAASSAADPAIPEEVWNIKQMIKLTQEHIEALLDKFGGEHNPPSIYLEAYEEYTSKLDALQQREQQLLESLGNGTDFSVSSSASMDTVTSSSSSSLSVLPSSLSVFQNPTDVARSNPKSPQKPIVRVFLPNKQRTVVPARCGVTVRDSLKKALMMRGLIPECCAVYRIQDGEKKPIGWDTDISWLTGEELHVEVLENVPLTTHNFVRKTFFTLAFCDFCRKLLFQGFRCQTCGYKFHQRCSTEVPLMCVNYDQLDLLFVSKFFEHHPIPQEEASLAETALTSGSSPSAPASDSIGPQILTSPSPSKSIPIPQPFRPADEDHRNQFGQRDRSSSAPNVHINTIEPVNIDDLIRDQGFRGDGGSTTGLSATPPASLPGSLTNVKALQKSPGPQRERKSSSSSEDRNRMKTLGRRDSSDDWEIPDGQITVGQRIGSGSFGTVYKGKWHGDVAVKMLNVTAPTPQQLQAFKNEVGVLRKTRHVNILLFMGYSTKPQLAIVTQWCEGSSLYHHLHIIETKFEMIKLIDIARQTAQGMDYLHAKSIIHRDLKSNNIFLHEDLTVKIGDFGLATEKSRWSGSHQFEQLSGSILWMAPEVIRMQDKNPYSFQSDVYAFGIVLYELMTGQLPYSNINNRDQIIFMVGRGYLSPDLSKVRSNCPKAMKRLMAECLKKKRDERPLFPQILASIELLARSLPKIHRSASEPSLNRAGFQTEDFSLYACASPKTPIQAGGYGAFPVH

Compound	pIC50 [1]	pIC50 [2]
Cc1ccc(NC(=O)c2ccnc(C(F)(F)F)c2)cc1-c1cnc(S(C)(=O)=O)c(C#N)c1 [Example 46, N-(3-(5-cyano-6-(methylsulfonyl)pyridin-3-yl)-4-methylphenyl)-2-(trifluoromethyl) isonicotinamide]	8.68	7.98
Cc1ncc(NC(=O)c2ccnc(C(C)(C)C#N)c2)cc1-c1cnc(-c2ccncc2)c(C#N)c1 [Example 107]	8.67	8.04
Cc1ccn(-c2ncc(-c3cc(NC(=O)c4ccnc(C(C)(C)C#N)c4)cnc3C)cc2C#N)n1 [Example 83, N-(5′-cyano-2-methyl-6′-(3-methyl-1H-pyrazol-1-yl)-[3,3′-bipyridin]-5-yl)-2-(2-cyanopropan-2-yl)isonicotinamide]	8.31	7.63
Cc1ncc(NC(=O)c2ccnc(C(C)(C)C#N)c2)cc1-c1cnc(-c2c(C)nn(C)c2C)c(C#N)c1 [Example 114, N-(5′-cyano-2-methyl-6′-(1,3,5-trimethyl-1H-pyrazol-4-yl)-[3,3′-bipyridin]-5-yl)-2-(2-cyanopropan-2-yl)isonicotinainide]	8.09	7.49
Cc1ccc(NC(=O)c2ccnc(C(F)(F)F)c2)cc1-c1cnc(-n2ccc(=O)cc2)c(C#N)c1 [Example 119, N-(3-(3′-cyano-4-oxo-4H-[1,2′-bipyridin]-5′-yl)-4-methylphenyl)-2-(trifluoromethyl) isonicotinamide]	8.78	7.91
Cc1ncc(NC(=O)c2cc(C(F)(F)F)nn2C)cc1-c1cnc(N(C)C)c(C#N)c1 [Example 267, N-(5′-cyano-6′-(dimethylamino)-2-methyl-[3,3′-bipyridin]-5-yl)-1-methyl-3-(trifluoromethyl)-1H-pyrazole-5-carboxamide]	6.71	5.78

Continued, values first:

pIC50 [1]	pIC50 [2]	Compound
9.00	8.44	Cc1ncc(NC(=O)c2ccnc(C(C)(C)C#N)c2)cc1-c1cnc(N2[C@@H]3CC[C@H]2COC3)c(C#N)c1 [Example 91, N-(6′-((1R,5S)-3-oxa-8-azabicyclo[3.2.1]octan-8-yl)-5′-cyano-2-methyl-[3,3′-bipyridin]-5-yl)-2-(2-cyanopropan-2-yl)isonicotinamide]
8.96	7.78	Cc1ccc(NC(=O)c2cccc(C(F)(F)F)c2)cc1-c1cc(C#N)c(N)nc1C [Example 41, N-(3-(6-amino-5-cyano-2-methylpyridin-3-yl)-4-methylphenyl)-3-(trifluoromethyl) benzamide]
9.14	8.48	Cc1ncc(NC(=O)c2ccnc(C3(C#N)CC3)c2)cc1-c1cnc(C2CCOCC2)c(C#N)c1 [Example 148, N-(5'-cyano-2-methyl-6'-(tetrahydro-2H-pyran-4-yl)-[3,3'-bipyridin]-5-yl)-2-(1-cyanocyclopropyl) isonicotinamide]
9.45	8.85	Cc1ccc(NC(=O)c2ccnc(C(C)(C)C#N)c2)cc1-c1cnc(N2CCNCC2)c(C#N)c1 [Example 151, N-(3-(5-cyano-6-(piperazin-1-yl)pyridin-3-yl)-4-methylphenyl)-2-(2-cyanopropan-2-yl)isonicotinamide]
9.82	9.15	Cc1ccc(NC(=O)c2ccnc(C(F)(F)F)c2)cc1-c1cnc(N2CCNCC2)c(C#N)c1 [Example 153, N-(3-(5-cyano-6-(piperazin-1-yl)pyridin-3-yl)-4-methylphenyl)-2-(trifluoromethyl) isonicotinamide]
9.73	8.87	Cc1ccc(NC(=O)c2cc(C(C)(C)C#N)ccn2)cc1-c1cnc(N2CCOCC2)c(C#N)c1 [Example 233, N-(3-(5-cyano-6-morpholinopyridin-3-yl)-4-methylphenyl)-4-(2-cyanopropan-2-yl)picolinamide]
8.79	8.26	Cc1ncc(NC(=O)c2ccnc(C(C)(C)C#N)c2)cc1-c1cnc(N2CCO[C@@H](C)C2)c(C#N)c1 [Example 74, (S)-N-(5′-cyano-2-methyl-6′-(2-methylmorpholino)-[3,3′-bipyridin]-5-yl)-2-(2-cyanopropan-2-yl)isonicotinamide]
